Data from ChEMBL document CHEMBL4665867, “Design and synthesis of analogues of the sphingosine-1-phosphate receptor 1 agonist IMMH001 with improved phosphorylation rate in human blood” (Bioorg Med Chem, 2020).

Key:
Assay type in all cases: ADME, tissue-based
Sphingosine kinase 1/2 [1] = target: T1, Sphingosine kinase 1/2 (Rattus norvegicus, UniProt Q91V26+A6JB73); assay: Prodrug conversion in rat blood assessed as SPHK1/SPHK2-mediated compound phosphorylation by measuring Km by LC-MS/MS analysis
Sphingosine kinase 1/2 [2] = target: T1, Sphingosine kinase 1/2; assay: Prodrug conversion in rat blood assessed as SPHK1/SPHK2-mediated compound phosphorylation by measuring Vmax by LC-MS/MS analysis
Sphingosine kinase 1/2 [3] = target: T2, Sphingosine kinase 1/2 (Homo sapiens, UniProt Q9NRA0+Q9NYA1); assay: Prodrug conversion in human blood assessed as SPHK1/SPHK2-mediated compound phosphorylation by measuring Vmax by LC-MS/MS analysis
Sphingosine kinase 1/2 [4] = target: T1, Sphingosine kinase 1/2; assay: Prodrug conversion in rat blood assessed as SPHK1/SPHK2-mediated compound phosphorylation by measuring intrinsic clearance by LC-MS/MS analysis
Sphingosine kinase 1/2 [5] = target: T2, Sphingosine kinase 1/2; assay: Prodrug conversion in human blood assessed as SPHK1/SPHK2-mediated compound phosphorylation by measuring Km by LC-MS/MS analysis
Sphingosine kinase 1/2 [6] = target: T2, Sphingosine kinase 1/2; assay: Prodrug conversion in human blood assessed as SPHK1/SPHK2-mediated compound phosphorylation by measuring intrinsic clearance by LC-MS/MS analysis

A Km (Sphingosine kinase 1/2 [1]) of 85.25 µM, a Vmax (Sphingosine kinase 1/2 [2]) of 37.24 pmol/min and a Vmax (Sphingosine kinase 1/2 [3]) of 0.53 pmol/min were found for `CCCc1nc(-c2ccc(-c3ccc(CCC(N)(CO)CO)cc3)cc2)co1.Cl` in this work. The CL (Sphingosine kinase 1/2 [4]) was 0.437 µL/min, the Km (Sphingosine kinase 1/2 [5]) was 42.62 µM and the CL (Sphingosine kinase 1/2 [6]) was 0.012 µL/min.

A Km (Sphingosine kinase 1/2 [1]) of 23.6 µM, a Vmax (Sphingosine kinase 1/2 [2]) of 4.13 pmol/min and a Vmax (Sphingosine kinase 1/2 [3]) of 2.15 pmol/min were found for `CCCc1nc(-c2ccc(-c3ccc(CC[C@@](C)(N)CO)cc3)cc2)co1.Cl` in this work. The CL (Sphingosine kinase 1/2 [4]) was 0.175 µL/min, the Km (Sphingosine kinase 1/2 [5]) was 86.55 µM and the CL (Sphingosine kinase 1/2 [6]) was 0.025 µL/min.

A Km (Sphingosine kinase 1/2 [1]) of 48.37 µM, a Vmax (Sphingosine kinase 1/2 [2]) of 16.15 pmol/min and a Vmax (Sphingosine kinase 1/2 [3]) of 2.63 pmol/min were found for `CCCc1nc(-c2ccc(-c3ccc(CC[C@@H](N)CO)cc3)cc2)co1.Cl` in this work. The CL (Sphingosine kinase 1/2 [4]) was 0.334 µL/min, the Km (Sphingosine kinase 1/2 [5]) was 54.12 µM and the CL (Sphingosine kinase 1/2 [6]) was 0.049 µL/min.

A Km (Sphingosine kinase 1/2 [1]) of 64.6 µM, a Vmax (Sphingosine kinase 1/2 [2]) of 61.3 pmol/min and a Vmax (Sphingosine kinase 1/2 [3]) of 0.31 pmol/min were found for `CCCCCCCCc1ccc(CCC(N)(CO)CO)cc1.Cl` [FINGOLIMOD HYDROCHLORIDE] in this work. It also gave a CL (Sphingosine kinase 1/2 [4]) of 0.95 µL/min, a Km (Sphingosine kinase 1/2 [5]) of 23.7 µM and a CL (Sphingosine kinase 1/2 [6]) of 0.013 µL/min.
